In patent publication US5843916A, “Cyclic amp analogues, individually and in pairs, to inhibit neoplastic cell growth” (priority 1994, dated 1998):
Read-outs that look alike come from different tables or passages of the source.

Experiments:
[1] = tested on: four leukemic cell lines (HL-60, K-562, myc-K562, Molt-4); assay: Growth inhibition of leukemic cell lines; type: cell-based, human
[2] = tested on: cultured human fibroblasts; conditions: cited from earlier work
[3] = tested on: breast and colon cancer lines (MCF-7, T-47D, ZR-75-1, MCF-7ras, MDA-MB-231, BT-20, HBL-100, LS-174T, WiDr, HT-29); assay: Growth inhibition of breast and colon cancer lines (FIG. 1); type: cell-based, human; conditions: 0.5 mM, alone
[4] = tested on: MCF-7ras breast cancer cell line; assay: Synergistic growth inhibition by analogue combinations (Table 2); type: cell-based, human; conditions: footnote of Table 2
Method: All breast cancer cell lines were grown in IMEM supplemented with 10% fetal bovine serum, HEPES 20 mM, penicillin-streptomycin, and extra glutamine. Colon carcinoma cell lines were grown in EMEM supplemented with 10% FBS, EMEM, NEAA, HEPES 20 mM, extra glutamine, and penicillin-streptomycin. The cells were grown at 37° C. in humidified incubators in an atmosphere of 5% CO2.
For cell growth experiments, 2-3×10^5 cells/60 mm dish were seeded, and 24 hours later (Day 0), the medium was removed, and fresh medium and the additives were added then and every 48 hours thereafter. The compounds of the present invention were added using 100X concentrated stock solutions. At desired times, cell counts in duplicate were performed on a Coulter counter after harvesting the cells with gentle trypsinization.
Synergism quotient was defined as the net growth inhibitory effect of the analogue combination divided by the sum of the net analogue effects on growth inhibition. A quotient of >1 indicates a synergistic effect, while a quotient of <1 indicates an antagonistic effect.
Synergism of growth inhibition was determined by
treatment of cells with C-6 analogues and C-8 analogues alone
and in combination at Day 0 and Day 2 and counting the cell
^a Data are expressed as percentage growth inhibition in reference to
the growth of untreated control cells and represent average values and
ranges (in parentheses) of duplicate cell counts on three or more separat
experiments. The values for percentage growth inhibition of each analogue
^b The synergism quotient was defined as previously described.

Molt-4 = assay: Growth inhibition of leukemic cells (Table 12); type: cell-based, human; conditions: Homo sapiens, MOLT-4; read-out: Inhibition of Growth IC50, Molt-4
[5] = tested on: breast (MCF-7) and colon (LS-174T) cancer cell lines; assay: Growth inhibition of breast and colon cancer cells (Table 1); type: cell-based, human; conditions: Homo sapiens
Method: The compounds of the present invention were added using 100X concentrated stock solutions. At desired times, cell counts in duplicate were performed on a Coulter counter after harvesting the cells with gentle trypsinization. […] Cell counts were performed on each of three or more separate experiments, and the average values are expressed as percent growth inhibition as compared with untreated control cells. | ^a The values of percentage growth inhibition were determined from th | doseresponse curve experiments. Each value represents an average value an | range (in parentheses) obtained from three or more separate experiments. | The cell counts in duplicate were performed at day 3 and day 4 after two | treatments (day 0 and day 2) with analogs (seeding on day -1).

myc-K562 = assay: Growth inhibition of leukemic cells (Table 12); type: cell-based; conditions: Homo sapiens
HL-60 = assay: Growth inhibition of leukemic cells (Table 12); type: cell-based; conditions: Homo sapiens
K-562 = assay: Growth inhibition of leukemic cells (Table 12); type: cell-based; conditions: Homo sapiens, K562
[6] = tested on: breast and colon cancer cells; assay: Effect on cell morphology (FIG. 2); type: cell-based, human; conditions: 100 μM; three to four days
Text: The photographs were taken on Day 4, ×160.
Furthermore, the synergistic growth inhibitory effect of C-6 and C-8 analogue combinations was also reflected in the change in the cell morphology.

[7] = 72 h, 50 μM, day 3, average (range), read-out: % Growth Inhibition, Day 3
[8] = 96 h, 50 μM, day 4, average (range), read-out: % Growth Inhibition, Day 4
[9] = 50 micromolar, read-out: growth inhibition

IC50 (Molt-4) | IC50 (myc-K562) | IC50 (HL-60) | IC50 (K-562) | IC50 ([1]; Homo sapiens, leukemic cell lines, range) | SMILES | growth inhibitory effect ([1]; 0.5 mM, alone) | DNA synthesis ([2]; added during first eight hours after serum addition) | DNA synthesis ([2]; added more than eight hours after serum addition) | growth inhibitory effect [3] | percentage growth inhibition of each analogue when added alone [4] | times less potent than 8-Cl-cAMP ([1]; leukemic cell lines) | inhibition at 50 µM [5, 7] | inhibition at 50 µM [5, 8] | inhibition at 50 µM [5, 9] | cell morphology [6]
 |  |  |  |  | CC(C)Cn1c(=O)n(C)c(=O)c2[nH]cnc21 [1-methyl-3-isobutylxanthine] | little or no growth inhibitory effect | not delayed | inhibitory | little or no growth inhibitory effect |  |  |  |  |  | 
100 µM | 100 µM | 100 µM | 100 µM |  | CNc1nc2c(N)ncnc2n1[C@@H]1O[C@@H]2COP(=O)(O)O[C@H]2[C@H]1O [8-methylamino-cAMP] |  |  |  |  | 10% | 5-20 times | 14% | 15% | ≤ 20% | 
100 µM | 100 µM | 100 µM | 100 µM |  | CSc1nc2c(N)ncnc2n1[C@@H]1O[C@@H]2COP(=O)(O)O[C@H]2[C@H]1O [8-methylthio-cAMP] |  |  |  |  |  | 5-20 times | 46% | 42% | 40 to 75% | induced the morphological change
40 µM | 50 µM | 50 µM | 45 µM | 40 to 50 µM | O=C(Nc1ncnc2c1ncn2[C@@H]1O[C@@H]2COP(=O)(O)O[C@H]2[C@H]1O)c1ccccc1 [N^6 -benzoyl-cAMP] |  |  |  |  | 10% |  | 30% | 28% |  | 
